In patent publication US20230293526A1, “METHOD FOR TREATING CANCER WITH A REVERSE TRANSCRIPTASE INHIBITOR” (PrimeFour Therapeutics, Inc., priority 2020, published 2023):

How the values were obtained:
Experiment in all cases: Cell proliferation Ex.3
Assay type in all cases: cell-based
[1] = test system: HeLa; details: Homo sapiens
Description: (§1) A dose response relationship on cell proliferation was assessed for Compound 13 on 140 tumor cell lines. […] Cells were cultured in the appropriate media. For the assays, cells were seeded in white cell culture-treated flat and clear bottom multiwell plates and incubated at 37° C. overnight before compound was added. […] on the medium, cell plates were equilibrated to room temperature for one hour, CellTiterGlo reagent (Promega) was added and luminescence was measured approximately an hour later using a luminometer. Raw data were converted into percent cell viability relative to the high and low control, which were set to 10000 and 000, respectively.

[2] = test system: RDES; details: RD-ES
Description: as §1

[3] = test system: HT29; details: Homo sapiens, HT-29
Description: as §1

[4] = test system: SKHEP1; details: Homo sapiens, SK-HEP1
Description: as §1

[5] = test system: MHHES1; details: Homo sapiens, MHH-ES-1
Description: as §1

[6] = test system: KASUMI
Description: as §1

[7] = test system: SF295; details: Homo sapiens, SF-295
Description: as §1

[8] = test system: MV4-11; details: Homo sapiens
Description: as §1

[9] = test system: MT3; details: MT-3
Description: as §1

[10] = test system: LOVO; details: Homo sapiens
Description: as §1

[11] = test system: SKMEL28; details: Homo sapiens, SK-MEL-28
Description: as §1

[12] = test system: CACO2; details: Homo sapiens, Caco-2
Description: as §1

[13] = test system: SU-DHL-6; details: Homo sapiens
Description: as §1

[14] = test system: THP-1; details: Homo sapiens
Description: as §1

[15] = test system: NCIH358M; details: NCI-H358M
Description: as §1

[16] = test system: MG63; details: Homo sapiens, MG-63
Description: as §1

[17] = test system: GRANTA-519; details: Homo sapiens
Description: as §1

[18] = test system: HEPG2; details: Homo sapiens
Description: as §1

[19] = test system: 22RV1; details: Homo sapiens
Description: as §1

[20] = test system: MCF7; details: Homo sapiens
Description: as §1

[21] = test system: RAMOS; details: Homo sapiens
Description: as §1

[22] = test system: DU145; details: Homo sapiens, DU-145
Description: as §1

[23] = test system: SF268; details: Homo sapiens, SF-268
Description: as §1

[24] = test system: OVCAR3; details: Homo sapiens, OVCAR-3
Description: as §1

[25] = test system: A2780; details: Homo sapiens
Description: as §1

[26] = test system: A549; details: Homo sapiens
Description: as §1

[27] = test system: L363; details: Homo sapiens, L-363
Description: as §1

Measured: IC50

C#C[C@]1(CO)O[C@@H](n2cc(F)c(N)nc2=O)C[C@@H]1O [compound 9]
4.99 µM: [13]; SU-DHL-6, 120 h
0.67 µM: [15]; 168 h
3.8 µM: [19]; 22Rv1, 72 h
4 nM: [21]; 120 h
1180 nM: [21]; 168 h
3.28 µM: [10]; 120 h | [19]; 22Rv1, 120 h
3.04 µM: [9]; MT3, 120 h
3.69 µM: [19]; 22Rv1, 168 h
350 nM: [17]; Granta-519, 168 h
251 nM: [8]; MV4-11, 120 h
1720 nM: [8]; MV4-11, 168 h
2.06 µM: [10]; 168 h
2480 nM: [8]; MV4-11, 72 h
240 nM: [17]; Granta-519, 120 h
4980 nM: [17]; Granta-519, 72 h
1.3 µM: [13]; SU-DHL-6, 168 h
> 10 µM: [1]; 72 h | [1]; 120 h | [1]; 168 h | [2]; 72 h | [2]; 120 h | [2]; 168 h | [3]; HT29, 72 h | [3]; HT29, 120 h | [3]; HT29, 168 h | [4]; SKHEP1, 72 h | [4]; SKHEP1, 120 h | [4]; SKHEP1, 168 h | [5]; MHHES1, 72 h | [5]; MHHES1, 120 h | [5]; MHHES1, 168 h | [6]; 72 h | [6]; 120 h | [6]; 168 h | [7]; SF295, 72 h | [7]; SF295, 120 h | [7]; SF295, 168 h | [9]; MT3, 72 h | [9]; MT3, 168 h | [10]; 72 h | [11]; SKMEL28, 72 h | [11]; SKMEL28, 120 h | [11]; SKMEL28, 168 h | [12]; CACO2, 72 h | [12]; CACO2, 120 h | [12]; CACO2, 168 h | [13]; SU-DHL-6, 72 h | [14]; THP-1, 72 h | [14]; THP-1, 120 h | [14]; THP-1, 168 h | [15]; 72 h | [15]; 120 h | [16]; MG63, 72 h | [16]; MG63, 120 h | [16]; MG63, 168 h | [18]; HepG2, 72 h | [18]; HepG2, 120 h | [18]; HepG2, 168 h | [20]; MCF7, 72 h | [20]; MCF7, 120 h | [20]; MCF7, 168 h | [22]; DU145, 72 h | [22]; DU145, 120 h | [22]; DU145, 168 h | [23]; SF268, 72 h | [23]; SF268, 120 h | [23]; SF268, 168 h | [24]; OVCAR3, 72 h | [24]; OVCAR3, 120 h | [24]; OVCAR3, 168 h | [25]; A2780, 72 h | [25]; A2780, 120 h | [25]; A2780, 168 h | [26]; A549, 72 h | [26]; A549, 120 h | [26]; A549, 168 h | [27]; L363, 72 h | [27]; L363, 120 h | [27]; L363, 168 h
4040 nM: [21]; 72 h
